Data reported in ChEMBL document CHEMBL1201862, “PubChem BioAssay data set” (2004).
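Cells were grown in 96-well plates and exposed to each compound for 48 hours at five concentrations; endpoints were interpolated linearly between bracketing concentrations, or set to the highest concentration if not reached. GI50: concentration for 50% inhibition of growth.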 Active and inactive are the calls of the source. Cut-off read from the data, not from the text of the source: active = GI50 up to about 1.1 µM and inactive = higher.

Assays:
Assay in all cases: NCI anticancer screen, dose series, 48 h
[1] = system: SK-OV-3
[2] = system: K562
[3] = system: NCI-H522
[4] = system: LXFL 529
[5] = system: 786-0
[6] = system: CAKI-1
[7] = system: KM12
[8] = system: HL-60
[9] = system: DMS-273
[10] = system: RXF 631
[11] = system: OVCAR-8
[12] = system: LOX IMVI
[13] = system: HT-29
[14] = system: SR
[15] = system: RXF 393
[16] = system: OVCAR-5
[17] = system: DMS-114
[18] = system: SF-268
[19] = system: SNB-19
[20] = system: SK-MEL-2
[21] = system: NCI-H226
[22] = system: M14
[23] = system: M19-MEL
[24] = system: UO-31
[25] = system: HCC 2998
[26] = system: RPMI-8226
[27] = system: HOP-92
[28] = system: OVCAR-3
[29] = system: U-251
[30] = system: KM-20L2
[31] = system: SN12C
[32] = system: NCI-H23
[33] = system: SNB-75
[34] = system: A498
[35] = system: MOLT-4
[36] = system: Malme-3M
[37] = system: UACC-62
[38] = system: SK-MEL-28
[39] = system: SNB-78
[40] = system: HOP-18
[41] = system: SF-295
[42] = system: HCT-15
[43] = system: SW-620
[44] = system: ACHN
[45] = system: A549
[46] = system: HOP-62
[47] = system: IGROV-1
[48] = system: COLO 205
[49] = system: TK-10
[50] = system: SF-539
[51] = system: UACC-257
[52] = system: EKVX
[53] = system: XF498
[54] = system: NCI-H460
[55] = system: CCRF-CEM
[56] = system: HCT-116
[57] = system: SK-MEL-5
[58] = system: DLD-1
[59] = system: OVCAR-4

SMILES: CCC/C(=N/NC(=O)C(N)=O)C(CC)C(=O)CCC(=O)N(Cc1ccccc1)Cc1ccccc1 (centres undefined)
- GI50 [1]: > 100 µM (inactive)
- GI50 [2]: > 100 µM (inactive)
- GI50 [3]: > 100 µM (inactive)
- GI50 [4]: > 100 µM (inactive)
- GI50 [5]: > 100 µM (inactive)
- GI50 [6]: > 100 µM (inactive)
- GI50 [7]: > 100 µM (inactive)
- GI50 [8]: > 100 µM (inactive)
- GI50 [9]: > 100 µM (inactive)
- GI50 [10]: > 100 µM (inactive)
- GI50 [11]: > 100 µM (inactive)
- GI50 [12]: > 100 µM (inactive)
- GI50 [13]: > 100 µM (inactive)
- GI50 [14]: > 100 µM (inactive)
- GI50 [15]: > 100 µM (inactive)
- GI50 [16]: > 100 µM (inactive)
- GI50 [17]: > 100 µM (inactive)
- GI50 [18]: > 100 µM (inactive)
- GI50 [19]: > 100 µM (inactive)
- GI50 [20]: > 100 µM (inactive)
- GI50 [21]: > 100 µM (inactive)
- GI50 [22]: > 100 µM (inactive)
- GI50 [23]: > 100 µM (inactive)
- GI50 [24]: > 100 µM (inactive)
- GI50 [25]: > 100 µM (inactive)
- GI50 [26]: > 100 µM (inactive)
- GI50 [27]: > 100 µM (inactive)
- GI50 [28]: > 100 µM (inactive)
- GI50 [29]: > 100 µM (inactive)
- GI50 [30]: > 100 µM (inactive)
- GI50 [31]: > 100 µM (inactive)
- GI50 [32]: > 100 µM (inactive)
- GI50 [33]: > 100 µM (inactive)
- GI50 [34]: > 100 µM (inactive)
- GI50 [35]: > 100 µM (inactive)
- GI50 [36]: > 100 µM (inactive)
- GI50 [37]: > 100 µM (inactive)
- GI50 [38]: > 100 µM (inactive)
- GI50 [39]: > 100 µM (inactive)
- GI50 [40]: > 100 µM (inactive)
- GI50 [41]: > 100 µM (inactive)
- GI50 [42]: > 100 µM
- GI50 [43]: > 100 µM (inactive)
- GI50 [44]: > 100 µM (inactive)
- GI50 [45]: > 100 µM (inactive)
- GI50 [46]: > 100 µM (inactive)
- GI50 [47]: > 100 µM (inactive)
- GI50 [48]: > 100 µM (inactive)
- GI50 [49]: > 100 µM (inactive)
- GI50 [50]: > 100 µM (inactive)
- GI50 [51]: > 100 µM (inactive)
- GI50 [52]: > 100 µM (inactive)
- GI50 [53]: > 100 µM (inactive)
- GI50 [54]: > 100 µM (inactive)
- GI50 [55]: > 100 µM (inactive)
- GI50 [56]: > 100 µM (inactive)
- GI50 [57]: > 100 µM (inactive)

SMILES: CCOC(=O)C1=C(C)N(NC(N)=O)C2(O)CCCC(=O)C12C (centres undefined)
- GI50 [1]: > 100 µM (inactive)
- GI50 [3]: > 100 µM (inactive)
- GI50 [4]: > 100 µM (inactive)
- GI50 [6]: > 100 µM (inactive)
- GI50 [7]: > 100 µM (inactive)
- GI50 [9]: > 100 µM (inactive)
- GI50 [10]: > 100 µM (inactive)
- GI50 [11]: > 100 µM (inactive)
- GI50 [12]: > 100 µM (inactive)
- GI50 [13]: > 100 µM (inactive)
- GI50 [14]: > 10 µM (inactive)
- GI50 [15]: > 100 µM (inactive)
- GI50 [16]: > 100 µM (inactive)
- GI50 [17]: > 100 µM (inactive)
- GI50 [19]: > 100 µM (inactive)
- GI50 [20]: > 100 µM (inactive)
- GI50 [58]: 94.4 µM (inactive)
- GI50 [21]: > 100 µM (inactive)
- GI50 [22]: > 100 µM (inactive)
- GI50 [25]: > 100 µM (inactive)
- GI50 [26]: > 100 µM (inactive)
- GI50 [27]: > 100 µM (inactive)
- GI50 [28]: > 100 µM (inactive)
- GI50 [29]: > 100 µM (inactive)
- GI50 [30]: > 100 µM (inactive)
- GI50 [31]: > 100 µM (inactive)
- GI50 [32]: > 100 µM (inactive)
- GI50 [33]: > 100 µM (inactive)
- GI50 [34]: > 100 µM (inactive)
- GI50 [36]: > 100 µM (inactive)
- GI50 [37]: > 100 µM (inactive)
- GI50 [59]: > 100 µM (inactive)
- GI50 [38]: > 100 µM (inactive)
- GI50 [39]: > 100 µM (inactive)
- GI50 [40]: > 100 µM (inactive)
- GI50 [41]: > 100 µM (inactive)
- GI50 [42]: > 100 µM
- GI50 [43]: > 100 µM (inactive)
- GI50 [44]: > 100 µM (inactive)
- GI50 [45]: > 100 µM (inactive)
- GI50 [47]: > 100 µM (inactive)
- GI50 [48]: > 100 µM (inactive)
- GI50 [49]: > 100 µM (inactive)
- GI50 [50]: > 100 µM (inactive)
- GI50 [51]: > 100 µM (inactive)
- GI50 [53]: > 100 µM (inactive)
- GI50 [56]: > 10 µM (inactive)
- GI50 [57]: > 100 µM (inactive)

SMILES: CC(=O)NNc1nc(C)c(C(=O)NNC(=O)C(=O)Nc2ccc([N+](=O)[O-])cc2[N+](=O)[O-])s1
- GI50 [1]: > 100 µM (inactive)
- GI50 [2]: 39.4 µM (inactive)
- GI50 [3]: 30.6 µM (inactive)
- GI50 [4]: 93.1 µM (inactive)
- GI50 [6]: 57.1 µM (inactive)
- GI50 [7]: > 100 µM (inactive)
- GI50 [8]: 64.9 µM (inactive)
- GI50 [9]: > 100 µM (inactive)
- GI50 [10]: 68.9 µM (inactive)
- GI50 [11]: > 100 µM (inactive)
- GI50 [12]: > 100 µM (inactive)
- GI50 [13]: 55.3 µM (inactive)
- GI50 [14]: 81.1 µM (inactive)
- GI50 [15]: 80.4 µM (inactive)
- GI50 [16]: > 100 µM (inactive)
- GI50 [17]: 30.1 µM (inactive)
- GI50 [18]: > 100 µM (inactive)
- GI50 [19]: > 100 µM (inactive)
- GI50 [20]: > 100 µM (inactive)
- GI50 [58]: > 100 µM (inactive)
- GI50 [21]: > 100 µM (inactive)
- GI50 [22]: > 100 µM (inactive)
- GI50 [24]: > 100 µM (inactive)
- GI50 [25]: > 100 µM (inactive)
- GI50 [26]: 99.8 µM (inactive)
- GI50 [27]: 79.3 µM (inactive)
- GI50 [29]: 68.7 µM (inactive)
- GI50 [30]: > 100 µM (inactive)
- GI50 [31]: > 100 µM (inactive)
- GI50 [32]: > 100 µM (inactive)
- GI50 [33]: 47.5 µM (inactive)
- GI50 [34]: > 100 µM (inactive)
- GI50 [35]: 37.1 µM (inactive)
- GI50 [37]: > 100 µM (inactive)
- GI50 [59]: > 100 µM (inactive)
- GI50 [38]: > 100 µM (inactive)
- GI50 [39]: > 100 µM (inactive)
- GI50 [41]: > 100 µM (inactive)
- GI50 [42]: > 100 µM
- GI50 [43]: > 100 µM (inactive)
- GI50 [44]: > 100 µM (inactive)
- GI50 [45]: 68.9 µM (inactive)
- GI50 [46]: > 100 µM (inactive)
- GI50 [47]: > 100 µM (inactive)
- GI50 [48]: > 100 µM (inactive)
- GI50 [49]: > 100 µM (inactive)
- GI50 [50]: > 100 µM (inactive)
- GI50 [51]: > 100 µM (inactive)
- GI50 [52]: 35.6 µM (inactive)
- GI50 [53]: > 100 µM (inactive)
- GI50 [54]: > 100 µM (inactive)
- GI50 [55]: 22.3 µM (inactive)
- GI50 [56]: > 100 µM (inactive)
- GI50 [57]: > 100 µM (inactive)
